Results as given in US20110195892A1, “Artifical Pulmonary Surfactant Compositions” (priority 2005, published 2011).
Square brackets hold non-standard residues; d marks the D form. Peptide text beside a SMILES is read from it.

How the values were obtained:
erythrocyte = type: cell-based
Method: The hemolytic activity of each peptide was measured in the way as will be described hereinafter.
Each peptide (ca. 1 mg) was dissolved in 20 (l of 100% acetic acid and diluted with phosphate buffer to reach a total amount of 5 ml. The resulting solution was measured for its absorbency (280 nm) to determine its concentration. The solution was then used for experiments in situ by dilution with phosphate buffer.
A blood sample (ca. 3 ml) was centrifuged at 2,000 rpm at 4° C. for 10 minutes and the supernatant was removed to form an erythrocyte sample. To the erythrocyte sample was added 1 ml of phosphate buffer, and the resulting solution was stirred well, followed by centrifugation in the manner as described above. These procedures were repeated three times to obtain the erythrocyte alone. Moreover, 1 ml of phosphate buffer was added to the resulting erythrocyte, and the resulting mixture was stirred well, followed by distributing it by 60 μl to microtubes and centrifuging to remove the supernatant therefrom. The resulting erythrocyte was in turn used for further experiments.
The peptide and a protein solution were then added by 1 ml to the erythrocyte sample, and the resulting solution was stirred well, followed by allowing it to stand at 25° C. for 60 minutes. Thereafter, the tubes were centrifuged to collect the supernatant only (100 μl) which was in turn measured at an absorbency of 542 nm. The supernatant was then returned to each tube and a drop of surfactant Triton® X was added to each tube, followed by stirring it well and measuring for its absorbency at 542 nm.

[1] = Wilhelmy tensiometer; Japanese Patent Publication No. 2004-305006 A1; cited from earlier work

Molecule	hemolytic activity of the peptide itself compared to peptide Hel 13-5 (erythrocyte)	hemolytic activity (in words) (erythrocyte)	hemolytic property (erythrocyte)	surface tension-surface area curve (hysteresis curve) compared with Surfacten [1]
CC(C)C[C@H](NC(=O)[C@H](CC(C)C)NC(=O)[C@H](CC(C)C)NC(=O)[C@H](CCCCN)NC(=O)[C@@H](CC(C)C)NC(=O)[C@H](CC(C)C)NC(=O)[C@H](CCCCN)NC(=O)[C@H](CC(C)C)NC(=O)[C@H](Cc1c[nH]c2ccccc12)NC(=O)[C@H](CC(C)C)NC(=O)[C@@H](CCCCN)NC(=O)[C@@H](CC(C)C)NC(=O)[C@H](CC(C)C)NC(=O)[C@H](CC(C)C)NC(=O)[C@H](CCCCN)NC(=O)[C@H](CC(C)C)NC(=O)[C@H](CC(C)C)NC(=O)[C@@H](N)CCCCN)C(=O)O [Hel 13-5D3, NH2-Lys Leu Leu Lys Leu Leu D-Leu D-Lys Leu Trp Leu Lys D-Leu Leu Lys Leu Leu Leu-COOH] (H-KLLKLL[dL][dK]LWLKL[dL]KLLL-OH)	lower by several times			
H-KLLKLLLKLWLKLLKLLL-OH [Hel 13-5, NH2-Lys Leu Leu Lys Leu Leu Leu Lys Leu Trp Leu Lys Leu Leu Lys Leu Leu Leu-COOH]		strong hemolytic activity	does not demonstrate a hemolytic property	equal curve to that of Surfacten®
